In US20260317340A1, “COMPOUNDS, COMPOSITIONS, AND METHODS OF TREATING DISORDERS” (Chengdu Anticancer Bioscience, Ltd., priority 2023, published 2026):
Like-named read-outs stand apart in the source and are kept apart here.

What was measured:
[1] = tested on: RPE-Neo or RPE-MYC cells; assay: MTT assay of cellular proliferation (proliferative arrest); type: cell-based; details: read-out: Min. Effective conc. for Proliferative arrest (>50%)
[2] = tested on: RPE-Neo or RPE-MYC or RPE-MYC expressing an EGFP-Histone 2B fusion protein; assay: Phenotypic screening assay: arrest in mitosis, change in DNA content (polyploidy), cell death; type: cell-based; details: 20 nM to 20 μM, 24, 48 or 72 hours
Outline: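 RPE-Neo, RPE-MYC or RPE-MYC EGFP-H2B cells plated 18-24 h before treatment with compounds at 20 nM to 20 μM. Mitotic arrest or DNA-content change scored by automated imaging at 24, 48 or 72 h; proliferation by MTT. Values binned into A–D ranges.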

[3] = read-out: Min. Effective conc. for Along with Cell Death
[4] = ≥5%, read-out: Min. Effective conc. for Mitotic Arrest (≥5%)
[5] = ≥5%, read-out: Min. Effective conc. for Polyploidy (≥5%)

Measured: minimal effective concentration

COc1ccc(CN2C(=O)CC(c3ncc(C)o3)=Cc3ccc(-c4cnn(C5(CC#N)CNC5)c4)cc32)cc1 [Compound 85, 2-(3-(4-(1-(4-Methoxybenzyl)-4-(5-methyloxazol-2-yl)-2-oxo-2,3-dihydro-1H-benzo[b]azepin-8-yl)-1H-pyrazol-1-yl)azetidin-3-yl)acetonitrile]
0.001 to 1 µM: [1] | [2]; [3] | [2]; [4] | [2]; [5]

COc1ccc(CN2C(=O)CC(c3ncc(C)o3)=Cc3ccc(-c4cnn(C(C)(C)C#N)c4)cc32)cc1 [Compound 86, 2-(4-(1-(4-Methoxybenzyl)-4-(5-methyloxazol-2-yl)-2-oxo-2,3-dihydro-1H-benzo[b]azepin-8-yl)-1H-pyrazol-1-yl)-2-methylpropanenitrile]
0.001 to 1 µM: [1] | [2]; [3] | [2]; [4] | [2]; [5]

COc1ccc(CN2C(=O)CC(c3ncc(C)o3)=Cc3ccc(-c4cnn(C5(CC#N)CN(S(C)(=O)=O)C5)c4)cc32)cc1 [Compound 87, 2-(3-(4-(1-(4-Methoxybenzyl)-4-(5-methyloxazol-2-yl)-2-oxo-2,3-dihydro-1H-benzo[b]azepin-8-yl)-1H-pyrazol-1-yl)-1-(methylsulfonyl)azetidin-3-yl)acetonitrile]
0.001 to 1 µM: [1] | [2]; [3] | [2]; [4] | [2]; [5]

COc1ccc(CN2C(=O)CC(c3ncc(C)o3)=Cc3ccc(-c4cnn(C5(CC#N)COC5)c4)cc32)cc1 [Compound 88, 2-(3-(4-(1-(4-Methoxybenzyl)-4-(5-methyloxazol-2-yl)-2-oxo-2,3-dihydro-1H-benzo[b]azepin-8-yl)-1H-pyrazol-1-yl)oxetan-3-yl)acetonitrile]
0.001 to 1 µM: [1] | [2]; [3] | [2]; [4] | [2]; [5]

COc1ccc(CN2C(=O)CC(c3ncc(C)o3)=Cc3ccc(-c4cnn(C5(CC#N)CN(S(=O)(=O)C6CC6)C5)c4)cc32)cc1 [Compound 89, 2-(1-(Cyclopropylsulfonyl)-3-(4-(1-(4-methoxybenzyl)-4-(5-methyloxazol-2-yl)-2-oxo-2,3-dihydro-1H-benzo[b]azepin-8-yl)-1H-pyrazol-1-yl)azetidin-3-yl)acetonitrile]
0.001 to 1 µM: [1] | [2]; [3] | [2]; [4] | [2]; [5]

COc1ccc(CN2C(=O)CC(c3ncc(C)o3)=Cc3ccc(-c4cnn(C5(CC#N)CN(C(=O)C6CC6)C5)c4)cc32)cc1 [Compound 90, 2-(1-(Cyclopropanecarbonyl)-3-(4-(1-(4-methoxybenzyl)-4-(5-methyloxazol-2-yl)-2-oxo-2,3-dihydro-1H-benzo[b]azepin-8-yl)-1H-pyrazol-1-yl)azetidin-3-yl)acetonitrile]
0.001 to 1 µM: [1] | [2]; [3] | [2]; [4] | [2]; [5]

COc1ccc(CN2C(=O)CC(c3ncc(C)o3)=Cc3ccc(-c4cnn(C5(CC#N)CN(S(=O)(=O)N(C)C)C5)c4)cc32)cc1 [Compound 91, 3-(Cyanomethyl)-3-(4-(1-(4-methoxybenzyl)-4-(5-methyloxazol-2-yl)-2-oxo-2,3-dihydro-1H-benzo[b]azepin-8-yl)-1H-pyrazol-1-yl)-N,N-dimethylazetidine-1-sulfonamide]
0.001 to 1 µM: [1] | [2]; [3] | [2]; [4] | [2]; [5]

COc1ccc(CN2C(=O)CC(c3ncc(C)o3)=Cc3ccc(-c4cnn(C5(C(N)=O)CC5)c4)cc32)cc1 [Compound 92, 1-(4-(1-(4-Methoxybenzyl)-4-(5-methyloxazol-2-yl)-2-oxo-2,3-dihydro-1H-benzo[b]azepin-8-yl)-1H-pyrazol-1-yl)cyclopropane-1-carboxamide]
0.001 to 1 µM: [1] | [2]; [3] | [2]; [4] | [2]; [5]

COc1ccc(CN2C(=O)CC(c3nnc(C)o3)=Cc3ccc(-c4cnn(CC(C)(C)O)c4)cc32)cc1 [Compound 93, 8-(1-(2-Hydroxy-2-methylpropyl)-1H-pyrazol-4-yl)-1-(4-methoxybenzyl)-4-(5-methyl-1,3,4-oxadiazol-2-yl)-1,3-dihydro-2H-benzo[b]azepin-2-one]
0.001 to 1 µM: [1] | [2]; [3] | [2]; [4] | [2]; [5]

COc1ccc(CN2C(=O)CC(c3nc(C4CC4)no3)=Cc3ccc(-c4cnn(CC(C)(C)O)c4)cc32)cc1 [Compound 95, 4-(3-cyclopropyl-1,2,4-oxadiazol-5-yl)-8-(1-(2-hydroxy-2-methylpropyl)-1H-pyrazol-4-yl)-1-(4-methoxybenzyl)-1,3-dihydro-2H-benzo[b]azepin-2-one]
0.001 to 1 µM: [1] | [2]; [3] | [2]; [4] | [2]; [5]

COc1ccc(CN2C(=O)CC(c3ccon3)=Cc3ccc(-c4cnn(CC(C)(C)O)c4)cc32)cc1 [Compound 97, 8-(1-(2-Hydroxy-2-methylpropyl)-1H-pyrazol-4-yl)-4-(isoxazol-3-yl)-1-(4-methoxybenzyl)-1,3-dihydro-2H-benzo[b]azepin-2-one]
0.001 to 1 µM: [1] | [2]; [3] | [2]; [4] | [2]; [5]

COc1ccc(CN2C(=O)CC(c3nnco3)=Cc3ccc(-c4cnn(CC(C)(C)O)c4)cc32)cc1 [Compound 98, 8-(1-(2-Hydroxy-2-methylpropyl)-1H-pyrazol-4-yl)-1-(4-methoxybenzyl)-4-(1,3,4-oxadiazol-2-yl)-1,3-dihydro-2H-benzo[b]azepin-2-one]
0.001 to 1 µM: [1] | [2]; [3] | [2]; [4] | [2]; [5]

COc1ccc(CN2C(=O)CC(c3nc(C)no3)=Cc3ccc(-c4cnn(CC(C)(C)O)c4)cc32)cc1 [Compound 99, 8-(1-(2-Hydroxy-2-methylpropyl)-1H-pyrazol-4-yl)-1-(4-methoxybenzyl)-4-(3-methyl-1,2,4-oxadiazol-5-yl)-1,3-dihydro-2H-benzo[b]azepin-2-one]
0.001 to 1 µM: [1] | [2]; [3] | [2]; [4] | [2]; [5]

[2H]C([2H])([2H])Oc1ccc(CN2C(=O)CC(c3ncc(C)o3)=Cc3ccc(-c4cnn(CC(C)(C)O)c4)cc32)cc1 [Compound 100, 8-(1-(2-Hydroxy-2-methylpropyl)-1H-pyrazol-4-yl)-1-(4-(methoxy-d3)benzyl)-4-(5-methyloxazol-2-yl)-1,3-dihydro-2H-benzo[b]azepin-2-one]
0.001 to 1 µM: [1] | [2]; [3] | [2]; [4] | [2]; [5]

Cc1cnc(C2=Cc3ccc(-c4cnn(CC(C)(C)O)c4)cc3N(Cc3ccc(C)c(F)c3)C(=O)C2)o1 [Compound 101, 1-(3-fluoro-4-methylbenzyl)-8-(1-(2-hydroxy-2-methylpropyl)-1H-pyrazol-4-yl)-4-(5-methyloxazol-2-yl)-1,3-dihydro-2H-benzo[b]azepin-2-one]
0.001 to 1 µM: [1] | [2]; [3] | [2]; [4] | [2]; [5]

COc1ccc(CN2C(=O)CC(c3ncc(C)o3)=Cc3ccc(-c4cnn(CC(C)(C)O)c4)cc32)cc1F [Compound 102, 1-(3-fluoro-4-methoxybenzyl)-8-(1-(2-hydroxy-2-methylpropyl)-1H-pyrazol-4-yl)-4-(5-methyloxazol-2-yl)-1,3-dihydro-2H-benzo[b]azepin-2-one]
0.001 to 1 µM: [1] | [2]; [3] | [2]; [4] | [2]; [5]

COc1ccc(CN2C(=O)CC(c3ncc(C)o3)=Cc3ccc(-c4cnn(CC(C)(C)O)c4)cc32)cn1 [Compound 103, 8-(1-(2-Hydroxy-2-methylpropyl)-1H-pyrazol-4-yl)-1-((6-methoxypyridin-3-yl)methyl)-4-(5-methyloxazol-2-yl)-1,3-dihydro-2H-benzo[b]azepin-2-one]
0.001 to 1 µM: [1] | [2]; [3] | [2]; [4] | [2]; [5]

COc1ccc(C(=O)N2CCC(c3ncc(C)o3)=Cc3ccc(-c4cnn(CC(C)(C)O)c4)cc32)cc1 [Compound 104, (8-(1-(2-Hydroxy-2-methylpropyl)-1H-pyrazol-4-yl)-4-(5-methyloxazol-2-yl)-2,3-dihydro-1H-benzo[b]azepin-1-yl) (4-methoxyphenyl)methanone]
0.001 to 1 µM: [1] | [2]; [3] | [2]; [4] | [2]; [5]

COc1ccc(C(=O)N2CCC(c3ncc(C)o3)=Cc3ccc(-c4cnn(CC(C)(C)O)c4)cc32)cn1 [Compound 105, (8-(1-(2-Hydroxy-2-methylpropyl)-1H-pyrazol-4-yl)-4-(5-methyloxazol-2-yl)-2,3-dihydro-1H-benzo[b]azepin-1-yl)(6-methoxypyridin-3-yl)methanone]
0.001 to 1 µM: [1] | [2]; [3] | [2]; [4] | [2]; [5]
